Laboratory results reported in ChEMBL document CHEMBL1201862, “PubChem BioAssay data set” (2004).
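48-hour exposure; five concentrations; linearly interpolated endpoints. Abbreviation: GI50, concentration required for 50% inhibition of growth.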 Calls of active or inactive are those of the source. No stated cut-off is given here; in the data, active = GI50 up to about 1.1 µM and inactive = higher.

Assays:
Test in all cases: NCI anticancer screen, dose series, 48 h
[1] = system: HCC 2998
[2] = system: TK-10
[3] = system: EKVX
[4] = system: SF-295
[5] = system: UACC-257
[6] = system: SF-268
[7] = system: K562
[8] = system: UACC-62
[9] = system: T47D
[10] = system: LOX IMVI
[11] = system: OVCAR-5
[12] = system: CCRF-CEM
[13] = system: HCT-15
[14] = system: MOLT-4
[15] = system: DU-145
[16] = system: 786-0
[17] = system: SK-MEL-5
[18] = system: NCI-H460
[19] = system: OVCAR-4

Row | Compound | GI50 [1] | GI50 [2] | GI50 [3] | GI50 [4] | GI50 [5] | GI50 [6] | GI50 [7] | GI50 [8] | GI50 [9] | GI50 [10] | GI50 [11] | GI50 [12] | GI50 [13] [µM] | GI50 [14] | GI50 [15] | GI50 [16] | GI50 [17] | GI50 [18] | GI50 [19]
1 | O=C(O)c1nc2ccccc2nc1NCc1ccc(F)cc1 | 99.1 µM (inactive) | > 100 µM (inactive) | 45.8 µM (inactive) | 38 µM (inactive) | > 100 µM (inactive) | 57 µM (inactive) | 56.1 µM (inactive) | > 100 µM (inactive) | 40.9 µM (inactive) | 36.8 µM (inactive) | > 100 µM (inactive) | 50.5 µM (inactive) | 16.6 | 67 µM (inactive) | 99.8 µM (inactive) | 42.8 µM (inactive) | 35.8 µM (inactive) | 60.7 µM (inactive) | 
2 | COc1c(Br)cc2c(c1OC)C(Br)CCC(Br)(Br)C2=O (centres undefined) | 5.08 µM (inactive) | 3.17 µM (inactive) | 3.93 µM (inactive) | 2.52 µM (inactive) | 3.17 µM (inactive) | 0.986 µM (active) | 0.377 µM (active) | 3.18 µM (inactive) | 1.85 µM (inactive) | 0.419 µM (active) | 4.92 µM (inactive) |  | 0.314 | < 0.0183 µM (active) | 3.01 µM (inactive) | 0.385 µM (active) | 0.653 µM (active) | 2.75 µM (inactive) | 1.65 µM (inactive)
3 | Cc1nn(C2OC(CO)C(O)C(F)C2O)c(=O)[nH]c1=O (centres undefined) | > 100 µM (inactive) | > 100 µM (inactive) |  | > 100 µM (inactive) | > 100 µM (inactive) | > 100 µM (inactive) | > 100 µM (inactive) | > 100 µM (inactive) | > 100 µM (inactive) | > 100 µM (inactive) | > 100 µM (inactive) | > 100 µM (inactive) | > 100 | 0.504 µM (active) | > 100 µM (inactive) | > 100 µM (inactive) | > 100 µM (inactive) | > 100 µM (inactive) | > 100 µM (inactive)
4 | COc1ccc(/C=C2\CCC(CNc3ccc(OC)cc3)C2=O)cc1 (centres undefined) | 21.2 µM (inactive) | 15.6 µM (inactive) | 30.3 µM (inactive) | 31 µM (inactive) | 17.5 µM (inactive) | 14.6 µM (inactive) |  | 17.1 µM (inactive) | 18.8 µM (inactive) | 12.9 µM (inactive) | 18.5 µM (inactive) | 3.37 µM (inactive) | 6.78 |  | 39.1 µM (inactive) | 9.51 µM (inactive) | 19 µM (inactive) | 47.8 µM (inactive) | 23.4 µM (inactive)
5 | CC1(C)CN=C(Nc2ccc(Cl)cc2)S1 | > 100 µM (inactive) | 65.8 µM (inactive) | 64 µM (inactive) | > 100 µM (inactive) | 70 µM (inactive) | > 100 µM (inactive) | > 100 µM (inactive) | 78.7 µM (inactive) | 42.9 µM (inactive) | 78.3 µM (inactive) | > 100 µM (inactive) | 74.3 µM (inactive) | > 100 | 58.5 µM (inactive) | > 100 µM (inactive) | > 100 µM (inactive) | 62.7 µM (inactive) |  | 72.3 µM (inactive)
6 | CC(C)(C)CN1[C@@H]2CCCC[C@H]2N(CC(C)(C)C)P1(=O)C(O)/C=C/c1ccccc1 (some centres undefined) | 28.5 µM (inactive) | 50.4 µM (inactive) | 50.1 µM (inactive) | 29.7 µM (inactive) | 30.1 µM (inactive) | 39 µM (inactive) | 42.6 µM (inactive) | 35.2 µM (inactive) | 26.1 µM (inactive) | 18.7 µM (inactive) | 50.4 µM (inactive) | 34.3 µM (inactive) | 18.5 | 35.5 µM (inactive) | 58.1 µM (inactive) | 39.4 µM (inactive) | 18.3 µM (inactive) | 26.2 µM (inactive) | 45.4 µM (inactive)
7 | CCOC(=O)C(CS)NC(=O)CCCCCCCC(=O)NC(CS)C(=O)OCC (centres undefined) | > 100 µM (inactive) | > 100 µM (inactive) | > 100 µM (inactive) | > 100 µM (inactive) | 34.4 µM (inactive) |  | > 100 µM (inactive) | > 100 µM (inactive) | > 100 µM (inactive) | 86.9 µM (inactive) | > 100 µM (inactive) | 21.2 µM (inactive) | > 100 | 32.4 µM (inactive) | > 100 µM (inactive) | > 100 µM (inactive) | > 100 µM (inactive) | > 100 µM (inactive) | > 100 µM (inactive)
8 | Cc1nc2ccccc2n1Cc1nnc(-c2ccccc2)o1 | > 100 µM (inactive) | > 100 µM (inactive) | > 100 µM (inactive) | > 100 µM (inactive) | > 100 µM (inactive) | > 100 µM (inactive) | 33.9 µM (inactive) | > 100 µM (inactive) | 57.8 µM (inactive) | 25.1 µM (inactive) | > 100 µM (inactive) | > 100 µM (inactive) | > 100 | 41.8 µM (inactive) | > 100 µM (inactive) | 38.7 µM (inactive) | 55 µM (inactive) | 91 µM (inactive) | 
